Values of other authors as cited in patent publication US5346895A, “Chromans and thiochromans with heteroarylethynyl substituents at the 7-position having retinoid-like biological activity” (Allergan, Inc., priority 1993, dated 1994).

Tested on: ornithine decarboxylase (ODC), TPA induced ODC activity
Settings: result in words, retinoic acid, background knowledge

CC1=C(/C=C/C(C)=C/C=C/C(C)=C/C(=O)O)C(C)(C)CCC1 [Retinoic acid]
inhibition of induction of ODC activity by TPA: inhibits this induction of ODC activity by TPA
